Source: patent US20260297085A1, “1 H-PYRROLO[2,3-B]PYRIDIN-4-YL]-2-OXOPYRROLIDINE-3-CARBONITRILE DERIVATIVES AS TYROSINE KINASE 2 (TYK2) INHIBITORS FOR THE TREATMENT OF INFLAMMATORY DISEASES” (BIOGEN MA INC., priority 2023, published 2026)
Counter-ions that a name gives are not always drawn.

How the values were obtained:
[1] = molecular target: Tyk2 kinase activity on STAT4 in NK92 cells (Homo sapiens, UniProt P29597); experiment: pSTAT4 cell assay (MSD; NK92 cells, 30 ng/mL IL2 stimulation); type: cell-based; conditions: 30 ng/mL IL2, 15 minutes
Outline: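 Read-out: phospho-STAT in NK92 lysates, MSD format, anti-STAT4 antibodies. Cells were serum-starved, given compound for 1 hr (10 μM top, four-fold, 10 points) and IL2-stimulated (30 ng/mL, 15 min). Normalized percent activity vs log concentration, 4-parameter logistic fit gave IC50.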

[2] = molecular target: T1, human JAK3 kinase domain (JH1) (Homo sapiens, UniProt P52333); experiment: JH1 biochemical assay for JAK3 (ADP-Glo kinase assay, recombinant JH1 catalytic domain, JAK3-974 peptide, 4 μM ATP); conditions: JAK3 JH1, ADP-Glo
T1 construct: recombinantly generated catalytic kinase (also known as JH1) domain of human JAK1, JAK2, JAK3 and TYK2
Outline: (§1)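 Reactions contain 50 μM peptide and run 100 minutes, with enzyme at 4, 0.2, 0.3 and 2 nM for JAK1, JAK2, JAK3 and TYK2. Generated ADP is read by luminescence; IC50 derives from normalized dose-response curves.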

[3] = molecular target: JAK1 kinase activity on STAT3 in TF1 cells (Homo sapiens, UniProt P23458); experiment: pSTAT3 cell assay (MSD; TF1 cells, 30 ng/mL IL-6 stimulation); type: cell-based; conditions: 30 ng/mL IL-6, 15 minutes
Outline: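 Serum starvation, 1 h compound (10 pt, 4-fold from 10 μM), IL-6 15 min, lysis. pSTAT3 read by MSD immunoassay, anti-STAT3 Abs. Normalized % activity vs log[cpd], 4-PL fit → IC50.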

[4] = molecular target: T2, human JAK2 kinase domain (JH1) (Homo sapiens, UniProt O60674); experiment: JH1 biochemical assay for JAK2 (ADP-Glo kinase assay, recombinant JH1 catalytic domain, JAK3-974 peptide, 15 μM ATP); conditions: JAK2 JH1, ADP-Glo
T2 construct: recombinantly generated catalytic kinase (also known as JH1) domain of human JAK1, JAK2, JAK3 and TYK2
Outline: as §1

[5] = molecular target: T3, human TYK2 kinase domain (JH1) (Homo sapiens, UniProt P29597); experiment: JH1 biochemical assay for TYK2 (ADP-Glo kinase assay, recombinant JH1 catalytic domain, JAK3-974 peptide, 10 μM ATP); conditions: TYK2 JH1, ADP-Glo
T3 construct: recombinantly generated catalytic kinase (also known as JH1) domain of human JAK1, JAK2, JAK3 and TYK2
T3 sequence (P29597 897-1176 limits assumed): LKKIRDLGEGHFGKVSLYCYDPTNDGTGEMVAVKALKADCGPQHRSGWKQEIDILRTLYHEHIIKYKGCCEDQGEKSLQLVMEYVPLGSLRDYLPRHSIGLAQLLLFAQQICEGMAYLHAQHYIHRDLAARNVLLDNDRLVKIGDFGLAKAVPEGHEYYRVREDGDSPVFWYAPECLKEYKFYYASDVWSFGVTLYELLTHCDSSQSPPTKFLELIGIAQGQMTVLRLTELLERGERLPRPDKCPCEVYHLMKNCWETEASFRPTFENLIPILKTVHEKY
Outline: as §1

[6] = molecular target: JAK2 kinase activity on STAT5 in TF1 cells (Homo sapiens, UniProt O60674); experiment: pSTAT5 cell assay (MSD; TF1 cells, 30 ng/mL IL-3 stimulation); type: cell-based; conditions: 30 ng/mL IL-3, 15 minutes
Outline: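 IC50 from a 4-parameter logistic fit of normalized pSTAT5 signal, measured by MSD in lysates of TF1 cells. Cells were serum-starved, exposed to compound for 1 h (top concentration 10 μM, four-fold, 10 points), then given IL-3 at 30 ng/mL for 15 min.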

[7] = molecular target: T4, human JAK1 kinase domain (JH1) (Homo sapiens, UniProt P23458); experiment: JH1 biochemical assay for JAK1 (ADP-Glo kinase assay, recombinant JH1 catalytic domain, JAK3-342 peptide, 35 μM ATP); conditions: JAK1 JH1, ADP-Glo
T4 construct: recombinantly generated catalytic kinase (also known as JH1) domain of human JAK1, JAK2, JAK3 and TYK2
Outline: as §1

T2 sequence (O60674 849-1124 limits assumed): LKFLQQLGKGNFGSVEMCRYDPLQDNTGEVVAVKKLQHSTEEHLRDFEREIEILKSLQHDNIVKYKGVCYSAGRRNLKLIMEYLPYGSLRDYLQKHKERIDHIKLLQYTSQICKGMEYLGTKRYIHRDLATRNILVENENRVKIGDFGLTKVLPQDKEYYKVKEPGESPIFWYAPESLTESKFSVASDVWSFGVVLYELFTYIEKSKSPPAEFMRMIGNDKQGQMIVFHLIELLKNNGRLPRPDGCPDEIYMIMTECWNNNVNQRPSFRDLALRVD
T1 sequence (P52333 822-1111 limits assumed): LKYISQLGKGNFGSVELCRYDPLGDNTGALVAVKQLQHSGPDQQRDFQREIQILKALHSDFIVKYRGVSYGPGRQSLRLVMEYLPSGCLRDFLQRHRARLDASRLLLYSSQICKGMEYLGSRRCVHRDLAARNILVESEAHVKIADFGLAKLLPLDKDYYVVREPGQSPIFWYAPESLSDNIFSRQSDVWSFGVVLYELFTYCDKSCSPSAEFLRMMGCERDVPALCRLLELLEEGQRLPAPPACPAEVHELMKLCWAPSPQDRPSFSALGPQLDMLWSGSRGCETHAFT
Chain of Tyk2 kinase activity on STAT4 in NK92 cells (P29597 whole entry): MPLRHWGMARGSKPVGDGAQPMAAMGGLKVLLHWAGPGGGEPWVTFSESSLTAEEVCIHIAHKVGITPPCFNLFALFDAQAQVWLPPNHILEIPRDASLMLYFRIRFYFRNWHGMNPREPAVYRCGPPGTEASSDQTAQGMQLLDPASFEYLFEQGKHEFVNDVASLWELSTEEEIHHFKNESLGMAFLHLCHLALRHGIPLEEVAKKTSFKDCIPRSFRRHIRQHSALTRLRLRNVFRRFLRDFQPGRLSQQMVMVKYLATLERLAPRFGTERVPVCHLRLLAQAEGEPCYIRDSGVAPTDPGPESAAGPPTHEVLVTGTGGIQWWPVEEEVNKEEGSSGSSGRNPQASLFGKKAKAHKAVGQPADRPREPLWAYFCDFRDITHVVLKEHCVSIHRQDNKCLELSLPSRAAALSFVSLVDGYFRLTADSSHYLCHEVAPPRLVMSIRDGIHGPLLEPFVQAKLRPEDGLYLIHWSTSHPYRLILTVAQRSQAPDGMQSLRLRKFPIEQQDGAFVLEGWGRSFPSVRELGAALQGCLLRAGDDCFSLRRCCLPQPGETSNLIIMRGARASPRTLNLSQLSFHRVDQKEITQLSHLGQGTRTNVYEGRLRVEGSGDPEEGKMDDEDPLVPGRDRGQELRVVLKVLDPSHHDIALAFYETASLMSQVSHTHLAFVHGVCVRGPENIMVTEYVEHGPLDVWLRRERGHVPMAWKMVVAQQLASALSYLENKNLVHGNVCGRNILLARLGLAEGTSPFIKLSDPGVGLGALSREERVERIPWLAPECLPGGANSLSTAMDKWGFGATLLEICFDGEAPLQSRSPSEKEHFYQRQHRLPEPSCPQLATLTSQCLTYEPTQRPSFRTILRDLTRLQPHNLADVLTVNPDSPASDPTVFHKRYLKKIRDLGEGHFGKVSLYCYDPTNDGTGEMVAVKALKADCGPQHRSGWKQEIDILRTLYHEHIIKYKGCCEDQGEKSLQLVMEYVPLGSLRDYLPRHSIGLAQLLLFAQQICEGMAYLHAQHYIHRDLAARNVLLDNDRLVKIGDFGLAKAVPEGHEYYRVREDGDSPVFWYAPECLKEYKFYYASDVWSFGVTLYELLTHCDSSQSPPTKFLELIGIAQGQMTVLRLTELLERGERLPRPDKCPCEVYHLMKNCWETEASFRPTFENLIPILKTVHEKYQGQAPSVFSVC
T4 sequence (P23458 875-1153 limits assumed): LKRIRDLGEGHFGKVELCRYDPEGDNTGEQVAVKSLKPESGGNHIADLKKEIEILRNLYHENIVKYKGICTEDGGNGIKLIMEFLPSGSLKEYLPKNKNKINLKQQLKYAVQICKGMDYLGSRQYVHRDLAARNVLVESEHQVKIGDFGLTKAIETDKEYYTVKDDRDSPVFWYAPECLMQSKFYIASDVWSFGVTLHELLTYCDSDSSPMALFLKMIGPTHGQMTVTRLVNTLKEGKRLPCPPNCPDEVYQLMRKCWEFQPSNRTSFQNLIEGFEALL
Chain of JAK1 kinase activity on STAT3 in TF1 cells (P23458 whole entry): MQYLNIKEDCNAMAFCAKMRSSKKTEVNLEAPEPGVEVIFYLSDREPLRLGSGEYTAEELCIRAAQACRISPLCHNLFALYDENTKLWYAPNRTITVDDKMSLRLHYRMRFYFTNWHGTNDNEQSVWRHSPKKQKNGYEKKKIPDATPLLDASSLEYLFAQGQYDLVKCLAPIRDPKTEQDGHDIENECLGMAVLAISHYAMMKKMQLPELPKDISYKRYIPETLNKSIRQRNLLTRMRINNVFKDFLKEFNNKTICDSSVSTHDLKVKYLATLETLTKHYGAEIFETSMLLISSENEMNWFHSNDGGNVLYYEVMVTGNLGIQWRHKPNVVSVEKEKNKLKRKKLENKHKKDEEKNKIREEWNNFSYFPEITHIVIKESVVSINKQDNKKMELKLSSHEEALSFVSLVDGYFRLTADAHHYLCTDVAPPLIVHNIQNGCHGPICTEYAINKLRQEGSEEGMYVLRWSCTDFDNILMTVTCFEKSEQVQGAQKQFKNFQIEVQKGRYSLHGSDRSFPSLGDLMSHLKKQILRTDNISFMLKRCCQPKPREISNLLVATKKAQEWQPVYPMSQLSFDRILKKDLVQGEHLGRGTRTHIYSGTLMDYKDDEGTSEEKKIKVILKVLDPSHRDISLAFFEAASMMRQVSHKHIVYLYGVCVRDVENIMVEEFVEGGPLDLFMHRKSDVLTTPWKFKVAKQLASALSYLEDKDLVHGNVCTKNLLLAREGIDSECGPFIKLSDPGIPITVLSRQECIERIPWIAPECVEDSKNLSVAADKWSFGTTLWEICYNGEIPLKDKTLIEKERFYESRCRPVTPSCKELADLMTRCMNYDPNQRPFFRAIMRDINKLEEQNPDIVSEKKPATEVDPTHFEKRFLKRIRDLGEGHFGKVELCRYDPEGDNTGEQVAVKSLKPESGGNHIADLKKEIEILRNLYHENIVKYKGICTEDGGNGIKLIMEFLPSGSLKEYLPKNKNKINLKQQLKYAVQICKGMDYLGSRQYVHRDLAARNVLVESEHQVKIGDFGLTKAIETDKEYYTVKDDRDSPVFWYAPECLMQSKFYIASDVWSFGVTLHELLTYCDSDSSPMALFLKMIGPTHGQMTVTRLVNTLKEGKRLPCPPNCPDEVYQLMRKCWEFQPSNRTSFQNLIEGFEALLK
Chain of JAK2 kinase activity on STAT5 in TF1 cells (O60674 whole entry): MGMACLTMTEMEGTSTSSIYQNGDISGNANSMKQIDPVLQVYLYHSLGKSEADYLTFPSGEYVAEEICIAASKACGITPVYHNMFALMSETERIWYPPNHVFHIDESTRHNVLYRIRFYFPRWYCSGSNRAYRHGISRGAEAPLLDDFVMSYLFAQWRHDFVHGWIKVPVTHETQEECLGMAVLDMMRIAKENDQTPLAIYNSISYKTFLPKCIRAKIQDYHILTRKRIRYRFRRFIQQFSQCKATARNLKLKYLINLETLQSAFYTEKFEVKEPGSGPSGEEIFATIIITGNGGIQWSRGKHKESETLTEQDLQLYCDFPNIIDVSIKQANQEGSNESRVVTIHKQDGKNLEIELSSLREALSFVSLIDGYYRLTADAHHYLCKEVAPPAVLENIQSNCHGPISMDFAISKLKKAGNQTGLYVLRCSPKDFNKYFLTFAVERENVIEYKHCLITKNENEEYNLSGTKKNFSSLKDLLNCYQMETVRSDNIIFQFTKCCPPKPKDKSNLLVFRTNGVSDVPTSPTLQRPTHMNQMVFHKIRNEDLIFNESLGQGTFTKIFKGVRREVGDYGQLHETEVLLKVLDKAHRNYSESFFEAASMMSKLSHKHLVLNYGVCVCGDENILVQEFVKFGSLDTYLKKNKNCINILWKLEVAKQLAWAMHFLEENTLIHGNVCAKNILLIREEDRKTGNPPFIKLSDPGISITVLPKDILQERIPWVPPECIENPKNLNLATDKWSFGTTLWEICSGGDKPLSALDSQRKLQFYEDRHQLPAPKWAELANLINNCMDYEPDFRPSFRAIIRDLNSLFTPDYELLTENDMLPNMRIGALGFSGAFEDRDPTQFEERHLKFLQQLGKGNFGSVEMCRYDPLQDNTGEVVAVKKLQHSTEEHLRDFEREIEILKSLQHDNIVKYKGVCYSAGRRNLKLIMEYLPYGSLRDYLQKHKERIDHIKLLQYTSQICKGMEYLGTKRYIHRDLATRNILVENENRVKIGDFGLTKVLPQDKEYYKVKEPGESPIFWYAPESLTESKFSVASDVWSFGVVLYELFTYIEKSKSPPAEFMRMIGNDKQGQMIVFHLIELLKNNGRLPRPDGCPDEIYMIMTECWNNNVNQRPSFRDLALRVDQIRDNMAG

IC50 [1] | IC50 [2] | IC50 [3] | IC50 [4] | IC50 [5] | IC50 [6] | IC50 [7] | Compound
5 to 20 nM | < 100 nM | < 0.1 µM | < 100 nM | < 5 nM | 0.1 to 1 µM | < 100 nM | C[C@@H]1CN(c2nc(-c3ccc4cnn(C)c4c3)cn3nccc23)C(=O)[C@]1(C#N)C1CC1 [Example 259, (3R,4S)-3-cyclopropyl-4-methyl-1-(6-(1-methyl-1H-indazol-6-yl)pyrazolo[1,5-a]pyrazin-4-yl)-2-oxopyrrolidine-3-carbonitrile trifluoroacetate]
> 100 nM | < 100 nM | 1 to 5 µM | 100 to 1000 nM | < 5 nM | 1 to 5 µM | 100 to 1000 nM | C[C@@H]1CN(c2nc(-c3ccn(C)c(=O)c3)cn3nccc23)C(=O)[C@]1(C#N)C1CC1 [Example 261, (3R,4S)-3-cyclopropyl-4-methyl-1-(6-(1-methyl-2-oxo-1,2-dihydropyridin-4-yl)pyrazolo[1,5-a]pyrazin-4-yl)-2-oxopyrrolidine-3-carbonitrile trifluoroacetate]
20 to 50 nM | < 100 nM | < 0.1 µM | < 100 nM | < 5 nM | 0.1 to 1 µM | < 100 nM | C[C@@H]1CN(c2nc(-c3ccc4nccn4c3)cn3nccc23)C(=O)[C@]1(C#N)C1CC1 [Example 263, (3R,4S)-3-cyclopropyl-1-(6-(imidazo[1,2-a]pyridin-6-yl)pyrazolo[1,5-a]pyrazin-4-yl)-4-methyl-2-oxopyrrolidine-3-carbonitrile trifluoroacetate]
50 to 100 nM | 100 to 1000 nM | > 10 µM | 1000 to 5000 nM | 5 to 20 nM | > 10 µM | 100 to 1000 nM | C[C@@H]1CN(c2nc(-c3cnc(N(C)C)nc3)cn3nccc23)C(=O)[C@]1(C#N)C1CC1 [Example 264, (3R,4S)-3-cyclopropyl-1-(6-(2-(dimethylamino)pyrimidin-5-yl)pyrazolo[1,5-a]pyrazin-4-yl)-4-methyl-2-oxopyrrolidine-3-carbonitrile trifluoroacetate]
50 to 100 nM | < 100 nM | 0.1 to 1 µM | 100 to 1000 nM | < 5 nM | 0.1 to 1 µM | < 100 nM | C[C@@H]1CN(c2nc(-c3ccc(O)nc3)cn3nccc23)C(=O)[C@]1(C#N)C1CC1 [Example 267, (3R,4S)-3-cyclopropyl-1-(6-(6-hydroxypyridin-3-yl)pyrazolo[1,5-a]pyrazin-4-yl)-4-methyl-2-oxopyrrolidine-3-carbonitrile trifluoroacetate]
50 to 100 nM | 100 to 1000 nM | 1 to 5 µM | 100 to 1000 nM | 5 to 20 nM | > 10 µM | 100 to 1000 nM | C[C@@H]1CN(c2ccnc3cc(-c4cnn(C)c4)oc23)C(=O)[C@]1(C#N)C1CC1 [Example 268, (3R,4S)-3-cyclopropyl-4-methyl-1-(2-(1-methyl-1H-pyrazol-4-yl)furo[3,2-b]pyridin-7-yl)-2-oxopyrrolidine-3-carbonitrile]
> 100 nM | 100 to 1000 nM | > 10 µM | 1000 to 5000 nM | 5 to 20 nM | > 10 µM | 100 to 1000 nM | C[C@@H]1CN(c2cc(-c3cnn(C)c3)cn3nccc23)C(=O)[C@]1(C#N)C1CC1 [Example 271, (3R,4S)-3-cyclopropyl-4-methyl-1-(6-(1-methyl-1H-pyrazol-4-yl)pyrazolo[1,5-a]pyridin-4-yl)-2-oxopyrrolidine-3-carbonitrile]
> 100 nM | 100 to 1000 nM | 5 to 10 µM | 1000 to 5000 nM | 5 to 20 nM | > 10 µM | 100 to 1000 nM | C[C@@H]1CN(c2nn(-c3cnn(C)c3)c3cnccc23)C(=O)[C@]1(C#N)C1CC1 [Example 275, (3R,4S)-3-cyclopropyl-4-methyl-1-(1-(1-methyl-1H-pyrazol-4-yl)-1H-pyrazolo[3,4-c]pyridin-3-yl)-2-oxopyrrolidine-3-carbonitrile]
> 100 nM | 100 to 1000 nM | 5 to 10 µM | 1000 to 5000 nM | 5 to 20 nM | > 10 µM | 100 to 1000 nM | C[C@@H]1CN(c2nn(-c3cnn(C(F)F)c3)c3cnccc23)C(=O)[C@]1(C#N)C1CC1 [Example 276, (3R,4S)-3-cyclopropyl-1-(1-(1-(difluoromethyl)-1H-pyrazol-4-yl)-1H-pyrazolo[3,4-c]pyridin-3-yl)-4-methyl-2-oxopyrrolidine-3-carbonitrile]
> 100 nM | 100 to 1000 nM | 1 to 5 µM | 100 to 1000 nM | < 5 nM | 5 to 10 µM | 100 to 1000 nM | CCn1cc(-n2nc(N3C[C@@H](C)[C@@](C#N)(C4CC4)C3=O)c3ccncc32)cn1 [Example 277, (3R,4S)-3-cyclopropyl-1-(1-(1-ethyl-1H-pyrazol-4-yl)-1H-pyrazolo[3,4-c]pyridin-3-yl)-4-methyl-2-oxopyrrolidine-3-carbonitrile]
> 100 nM | 100 to 1000 nM | 5 to 10 µM | 100 to 1000 nM | < 5 nM | 5 to 10 µM | 100 to 1000 nM | C[C@@H]1CN(c2nn(-c3cnn(C4COC4)c3)c3cnccc23)C(=O)[C@]1(C#N)C1CC1 [Example 278, (3R,4S)-3-cyclopropyl-4-methyl-1-(1-(1-(oxetan-3-yl)-1H-pyrazol-4-yl)-1H-pyrazolo[3,4-c]pyridin-3-yl)-2-oxopyrrolidine-3-carbonitrile]
> 100 nM | 100 to 1000 nM | 1 to 5 µM | 100 to 1000 nM | < 5 nM | > 10 µM | 100 to 1000 nM | CC(C)n1cc(-n2nc(N3C[C@@H](C)[C@@](C#N)(C4CC4)C3=O)c3ccncc32)cn1 [Example 280, (3R,4S)-3-cyclopropyl-1-(1-(1-isopropyl-1H-pyrazol-4-yl)-1H-pyrazolo[3,4-c]pyridin-3-yl)-4-methyl-2-oxopyrrolidine-3-carbonitrile]
> 100 nM | 100 to 1000 nM | 1 to 5 µM | 1000 to 5000 nM | 5 to 20 nM | > 10 µM | 100 to 1000 nM | Cc1cc(-n2nc(N3C[C@@H](C)[C@@](C#N)(C4CC4)C3=O)c3ccncc32)ccn1 [Example 281, (3R,4S)-3-cyclopropyl-4-methyl-1-(1-(2-methylpyridin-4-yl)-1H-pyrazolo[3,4-c]pyridin-3-yl)-2-oxopyrrolidine-3-carbonitrile]
5 to 20 nM | < 100 nM | < 0.1 µM | < 100 nM | < 5 nM | < 0.1 µM | < 100 nM | C[C@@H]1CN(c2nc(-c3cnn(C)c3)cc3ncsc23)C(=O)[C@]1(C#N)C1CC1 [Example 284, (3R,4S)-3-cyclopropyl-4-methyl-1-(6-(1-methyl-1H-pyrazol-4-yl)thiazolo[5,4-c]pyridin-4-yl)-2-oxopyrrolidine-3-carbonitrile]
50 to 100 nM | 100 to 1000 nM | 1 to 5 µM | < 100 nM | 5 to 20 nM | 1 to 5 µM | 100 to 1000 nM | C[C@@H]1CN(c2c[nH]c3ncc(-c4cnn(C)c4)cc23)C(=O)[C@]1(C#N)C1CC1 [Example 288, (3R,4S)-3-cyclopropyl-4-methyl-1-(5-(1-methyl-1H-pyrazol-4-yl)-1H-pyrrolo[2,3-b]pyridin-3-yl)-2-oxopyrrolidine-3-carbonitrile]
5 to 20 nM | < 100 nM | < 0.1 µM | < 100 nM | < 5 nM | < 0.1 µM | < 100 nM | C[C@@H]1CN(c2nc(-c3cnn(C4CC5(COC5)C4)c3)cn3nccc23)C(=O)[C@]1(C#N)C1CC1 [Example 289, (3R,4S)-1-(6-(1-(2-oxaspiro[3.3]heptan-6-yl)-1H-pyrazol-4-yl)pyrazolo[1,5-a]pyrazin-4-yl)-3-cyclopropyl-4-methyl-2-oxopyrrolidine-3-carbonitrile]
